Source: patent publication US7517658B2, “Methods for preparing compositions using a SNORF33 receptor” (H. Lundbeck A/S, priority 1999, dated 2009)
“And” between values parts separate entries of the source, which are not always exact repeats. Identical values can stand only once.

Legend:
rSNORF33 [1] = target: T1, rSNORF33 (Rattus norvegicus, UniProt Q923Y9); test: Intracellular cAMP release in rSNORF33-transfected COS-7 cells; type: cell-based; parameters: expressed in transfected cells; host or cells: COS-7 (transient); conditions: transiently transfected COS-7 cells; 3–8 experiments; read-out: Mean EC50 ± S.E.M., stimulation of rSNORF33 measured by intracellular cAMP release
T1 sequence (Q923Y9 whole entry): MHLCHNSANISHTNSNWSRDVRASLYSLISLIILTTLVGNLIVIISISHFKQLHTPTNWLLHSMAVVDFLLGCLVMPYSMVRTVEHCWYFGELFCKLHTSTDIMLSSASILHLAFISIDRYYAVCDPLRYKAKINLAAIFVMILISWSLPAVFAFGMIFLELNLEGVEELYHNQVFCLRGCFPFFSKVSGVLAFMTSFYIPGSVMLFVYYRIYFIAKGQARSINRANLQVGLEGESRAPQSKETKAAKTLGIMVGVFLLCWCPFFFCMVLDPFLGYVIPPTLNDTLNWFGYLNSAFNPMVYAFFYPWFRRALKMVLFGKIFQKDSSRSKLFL
Description: (§1) The receptor-mediated stimulation or inhibition of cyclic AMP (cAMP) formation may be assayed in cells expressing the mammalian receptors. Cells are plated in 96-well plates or other vessels and preincubated in a buffer such as HEPES buffered saline (NaCl (150 mM), CaCl2 (1 mM), KCl (5 mM), glucose (10 mM)) supplemented with a phosphodiesterase inhibitor such as 5 mM theophylline, with or without protease inhibitor cocktail (For example, a typical inhibitor cocktail contains 2 μg/ml aprotinin, […] leupeptin, and 10 μg/ml phosphoramidon.) for 20 min at 37° C., in 5% CO2. Test compounds are added with or without […] forskolin and incubated for an additional 10 min at 37° C. The medium is then aspirated and the reaction stopped by the addition of 100 mM HCl or other methods. The plates are stored at 4° C. for 15 min, and the cAMP content in the stopping solution is measured by radioimmunoassay. Radioactivity may be quantified using a gamma counter equipped with data reduction software. Specific modifications may be performed to optimize the assay for the receptor or to alter the detection method of cAMP.
(§2) COS-7 cells were transiently transfected with rSNORF33 gene using the calcium phosphate method and plated in 96-well plates. 48 hours after transfection, cells were washed twice with Dulbecco's phosphate buffered saline (PBS) supplemented with 10 mM HEPES, 10 mM glucose, 5 mM theophylline and 10 μM pargyline and were incubated in the same buffer for 20 min at 37° C., in […] 5% CO2. Test compounds were added and cells were incubated for an additional 10 min at 37° C. The medium was then aspirated and the reaction stopped by the addition of 100 mM HCl. The plates were stored at −20° C. for 2-5 days. For cAMP measurement, plates were thawed and the cAMP content in each well was measured by radioimmunoassay cAMP Scintillation Proximity Assay (Amersham Pharmacia Biotech). Radioactivity was quantified using microbeta Trilux counter (Wallac).

rSNORF33 [2] = target: T1, rSNORF33; test: [3H]-TYR binding (saturation and displacement) to rSNORF33-transfected COS-7 membranes; parameters: expressed in transfected cells; host or cells: COS-7 (transient); conditions: rSNORF33 in transfected COS-7 membranes; 2–4 experiments; read-out: Mean Ki ± S.D.M., displacement of [3H]-tyramine
Description: (§3) Radioligand binding assays were performed by diluting membranes prepared from cells expressing the receptor (with co-expression of the rat G-protein alpha S subunit for human SNORF33) in 25 mM Gly-Gly buffer (Sigma, pH=7.4 @ 0° C.) containing 5 mM ascorbate and 10 μM pargyline (final protein concentration in assay=100-300 μg/ml). Membranes were then incubated with either [^3H]-TYR (American Radiochemicals, specific activity 60 mCi/μmole) or [^3H]-T (Amersham, specific activity 98 mCi/μmole) in the presence or absence of competing ligands on ice for 30 min in a total volume of 250 μl in 96 well microtiter plates. The bound ligand was separated from free by filtration through GF/B filters presoaked in 0.5% polyethyleneimine (PEI), using Tomtec (Wallac) or Brandel Cell Harvester vacuum filtration device. After addition of Ready Safe (Beckman) scintillation fluid, bound radioactivity was quantitated using a Trilux (Wallac) scintillation counter (approximately 20% counting efficiency of bound counts). Data was fit to non-linear curves using GraphPad Prism.
(§4) In this manner, agonist or antagonist compounds that bind to the receptor may be identified as they inhibit the binding of the labeled ligand to the membrane protein of cells expressing the said receptor. Non-specific binding was defined as the amount of radioactivity remaining after incubation of membrane protein in the presence of 10 μM of the unlabeled amine corresponding to the radioligand used. In equilibrium saturation binding assays, membrane preparations or intact cells transfected with the receptor are incubated in the presence of increasing concentrations of the labeled compound to determine the binding affinity of the labeled ligand. The binding affinities of unlabeled compounds may be determined in equilibrium competition binding assays, using a fixed concentration of labeled compound in the presence of varying concentrations of the displacing ligands.

mouse SNORF33 [3] = target: T2, mouse SNORF33 (Mus musculus, UniProt Q923Y8); test: [3H]-TYR binding (saturation and displacement) to mouse SNORF33 COS-7 membranes; conditions: mouse SNORF33, displacement of [3H]TYR; read-out: Ki (individual determinations)
T2 construct: expressed in transfected cells; host or cells: COS-7 (membranes)
T2 sequence (Q923Y8 whole entry): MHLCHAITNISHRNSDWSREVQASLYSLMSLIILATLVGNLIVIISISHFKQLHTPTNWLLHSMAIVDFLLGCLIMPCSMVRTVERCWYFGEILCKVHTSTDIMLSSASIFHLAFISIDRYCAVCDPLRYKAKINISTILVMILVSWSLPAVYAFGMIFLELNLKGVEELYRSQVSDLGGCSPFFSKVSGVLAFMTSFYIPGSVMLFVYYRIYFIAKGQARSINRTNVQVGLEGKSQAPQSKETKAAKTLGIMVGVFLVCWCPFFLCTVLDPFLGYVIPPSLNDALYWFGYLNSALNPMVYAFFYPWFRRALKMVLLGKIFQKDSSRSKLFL
Description: as §3, with “[^3H]-TYR and [^3H]-T binding assays were performed essentially as described by Mallard et al. (1992), with minor modifications. Radioligand” for “Radioligand”
as §4

mouse SNORF33 [4] = target: T2, mouse SNORF33; test: cAMP assay at mouse SNORF33; type: cell-based
Description: as §1, §2

rat SNORF33 = target: T3, rat SNORF33 (Rattus norvegicus, UniProt Q923Y9); test: cAMP response in stable rat SNORF33/HEK293 cells; type: cell-based; conditions: data not shown
T3 construct: expressed in transfected cells
T3 sequence (Q923Y9 whole entry): as the sequence (Q923Y9 whole entry) above
Description: as §1

For `NCC(O)c1ccc(O)cc1` (centres unmarked) [Octopamine (OCT), Octopamine], which EC50 (rSNORF33 [1]) is on record?
The EC50 was 135 ± 54 nM.

What about the Ki (rSNORF33 [2]) of the same compound?
The Ki was 310 ± 71 nM.

How did the Ki (mouse SNORF33 [3]) turn out when `NCCc1c[nH]c2ccccc12` [Tryptamine (T), Tryptamine] was run?
The Ki was 140 nM.

And the “Agonism in the cAMP assay” value (mouse SNORF33 [4])?
Its value is “full agonists”.

And the EC50 (rSNORF33 [1])?
Its EC50 is 17 ± 4 nM.

What about the Ki (rSNORF33 [2]) of the same compound?
The Ki was 70 ± 14 nM.

Which results are given for `NCCc1ccc(O)cc1` [Tyramine (TYR), Tyramine]?
Ki (mouse SNORF33 [3]): 19 nM and 20 nM; Agonism in the cAMP assay (mouse SNORF33 [4]): full agonists; Increase in cAMP (rat SNORF33): ~4 fold; EC50 (rSNORF33 [1]): 9 ± 6 nM; Ki (rSNORF33 [2]): 13 ± 4 nM
